The values below come from patent publication US10624947B2, “Bactericidal peptides and uses thereof” (INDIANA UNIVERSITY RESEARCH AND TECHNOLOGY CORPORATION, priority 2016, dated 2020).

One series deals with E. coli Top10pHNSHP45. Put plainly: Killing of colistin-resistant E. coli harboring mcr-1 plasmid. Format: cell-based, Escherichia coli. The following applies: for Reduction of Top10pHNSHP45 colony formation: 5 minute incubation (FIG. 12B).
Another series relates to Toll-like receptor 3. As to the kind of experiment: Poly(I:C)-induced cytokine production in BEAS-2B cells, ELISA. The following applies: peptide 2 μM. It is filed as cell-based, human.
The subject of a further series is Pseudomonas aeruginosa. It is filed as cell-based.
The next series relates to Vibrio vulnificus. Put plainly: Lethal sepsis model, surgical incision infection. The following applies: no V. vulnificus.
For a further series, the system named is E. coli ATCC 25922. As to the kind of experiment: Bactericidal activity, viable colony formation. Format: cell-based, Escherichia coli. The conditions noted are these: for Viable colony formation, E. coli ATCC 25922 / Fold reduction, E. coli ATCC 25922: 2 μM peptide for 30 min; for Fold reduction, E. coli ATCC 25922: versus mock. On the procedure:
(§1) The broth dilution assay tested for the inhibition of growth. To determine whether B22a has bactericidal activity, viable colonies that formed after bacteria were treated with 2 μM of B22a for 30 min were enumerated (Table 7). Peptide B22a reduced viable colony formation by E. coli by over 2 orders of magnitude. B22a reduced viable colony formation by P. aeruginosa by over 3 orders of magnitudes. B22a, like its predecessor B22, is a bactericidal for Gram-negative bacteria.

In a further series the test system is P. aeruginosa PAO1. As to the kind of experiment: Bactericidal activity, viable colony formation. The following applies: for Viable colony formation, P. aeruginosa PAO1 / Fold reduction, P. aeruginosa PAO1: 2 μM peptide for 30 min; for Fold reduction, P. aeruginosa PAO1: versus mock. It is filed as cell-based, Pseudomonas aeruginosa. Here is the method: as §1

Series [1] concerns human red blood cells (hRBCs). As to the kind of experiment: Hemolytic activity. Format: cell-based.
Protocol: The amount of hemoglobin released was measured by the absorbance at 435 nm after a 60-minute incubation with the antimicrobial peptide. The percentage of hRBC lysis was normalized to the amount hemoglobin released by the suspension of the hRBCs in deionized water. The background amount of hRBC lysis was determined by adding phosphate buffered saline (PBS) at the same volume as 8 μM of the peptide to the hRBC for 1 h.
The hemolytic activities of peptides were determined using human red blood cells (hRBCs) (Innovative Research, Inc., cat. # IPLA-WB3-18103). The hRBCs were washed three times with PBS and then resuspended in PBS. The hRBCs solution was mixed with serial dilutions of the peptides in PBS buffer. The reaction mixtures were incubated for 45 min at 37° C. After centrifugation at 94×g for 10 min, the intact hRBCs were pelleted and the hemoglobin released from hRBCs was monitored by measuring the absorbance of the supernatant at 415 nm. The background level of absorbance was measured in sampled incubated with only PBS buffer. 100% hemolysis was determined in sampled incubated with water. The percentage of hemolysis was calculated according to the following equation. Percentage of hemolysis=[(Asample−Ablank)/Awater]*100%
Mammalian cells are thought to be less susceptible to cathelicidin peptides in part because the composition of their membrane will be less likely to interact with the peptides. To address this directly, human red blood cells (hRBCs) were tested for lysis after a 45-minute incubation with the peptides. The total lysis of hRBCs was determined by adding water to the cells. The amount of lysis during handling was determined by the addition of phosphate buffered saline at the same volume as that of the peptides.
Another series has as its system Cultured human cells. As to the kind of experiment: MTT cytotoxicity assay. It is filed as cell-based.
Series [2] can be described thus: Toxicity of peptides injected intraperitoneally. It is filed as in vivo, mice. The conditions noted are these: intraperitoneal, 10 or 20 μM. Here is the method:
FIGS. 23A, B show the efficacy and toxicity of modified peptides in mice. […] The survival of mice injected intraperitoneally with iron dextran at 48 h after intraperitoneal injection of 10 or 20 μM of the modified peptides. […] Vibrio vulnificus (V. v.) strain CMCP6 was injected at 1×10^6 CFU. […] All mice receive iron dextran by intraperitoneal injection. Where indicated, 1 h later 10^6 bacterial CFU in 100 μL was injected into the peritoneum (opposite side). 1 h later, 100 μL of the peptide at the indicated concentration was administered on the same side as the bacterial injection.
Since B22a was effective in preventing infection of V. vulnificus in a surgical incision model, we tested it for efficacy for systemic infection in a mouse septicemia model (1). Groups of mice (strain CD-1) were first injected with […], followed 1 h later with an intraperitoneal injection of 1×10e6 colony forming units of V. vulnificus strain […]. The B22a was then injected intraperitoneally 1 h later and morbidity was monitored hourly for two days.
PB22N and other modified peptides were tested in a septicemic mouse model. V. vulnificus is a highly-pathogenic bacterium, causing septicemia and high mortality. In mice injected intraperitoneally with V. vulnificus, the majority of the mice had to be euthanized within 24 h due to severe symptoms associated with septicemia (FIG. 23B). […] PB22N was effective in preventing mice from succumbing to systemic infection by the highly virulent V. vulnificus.

Another series concerns V. angustum. Put plainly: Vibrios killing activity. Format: cell-based. The following applies: increasing concentrations of SMAP-29C.
The next series concerns V. fischeri. As to the kind of experiment: Vibrios killing activity. The conditions noted are these: increasing concentrations of SMAP-29C. It is filed as cell-based.
In another series the test system is V. harveyi. Put plainly: Vibrio growth with increasing peptide concentration. It is filed as cell-based. The conditions noted are these: increasing concentrations of SMAP-29C. On the procedure:
Bacteria within Vibrio genus are highly sensitive to the SMAP-29C peptide. Various strains of Vibrio were treated with increasing concentrations of SMAP-29C (See FIG. 7).

Another series relates to 19 Gram-negative strains. As to the kind of experiment: MIC panel, number of strains inhibited. The following applies: of 19 Gram-negative strains. Format: cell-based.
The subject of the next series is P. aeruginosa. Put plainly: Growth rate of culture, optical density. Format: cell-based, Pseudomonas aeruginosa. The following applies: 30 nM peptide. Here is the method: FIG. 21 is a graph showing of peptide B22 (mock), B22a and B22m1 (each at […]) can reduce bacterial growth of P. aeruginosa, wherein the bacteria were grown in a plate reader at 37° C. and shaken. Optical density was monitored every ten (10) minutes to track the growth rate.
This low concentration of the peptide should further decrease the possibility of peptide oligomerization, as oligomerization should be dependent on the concentration of the peptide. The growth of the bacterial culture was then monitored over time. […] The cell division time of E. coli and Enterobacter cloacae were also in the absence or presence of 100 nM of B22a. The presence of B22a increased the doubling time of both bacterial by more than 2-fold. […] Should B22a and B22m1 inhibit bacteria growth as well as kill bacteria through the formation of higher order structures in the membrane, the peptides may have multiple mechanisms to act against bacteria survival. Peptides that act by multiple mechanisms may result in lower bacterial resistance to the peptides.

“Also recorded” adds a separate entry of the source. Read-outs that look alike come from different tables or passages of the source. Square brackets hold non-standard residues; d marks the D form. Ends that are not written are not given here. Peptide text beside a SMILES is read from it. AEEA = NCCOCCOCC(=O)O

Protocol for 19 Gram-negative strains: (§2) Antimicrobial activity was determined using the broth microdilution method based on the general recommendation of the Clinical and Laboratory Standards Institute. Bacteria were grown in Mueller-Hinton broth at 37° C. until OD625 reached 0.06, and then bacteria were further diluted into 1:20 for later use. […] 10 microliter (μL) of diluted bacteria was mixed with 90 μL of peptides at varying concentrations followed by incubation at 37° C. for 16-18 hours. The MIC is the lowest peptide concentration at which visible growth was inhibited. The MIC value was determined at least twice in independent experiments and typically in 3-4 assays.
Protocol for E. coli Top10pHNSHP45: 1×10^5 CFUs of the bacteria were incubated for 30 min with the concentration of the peptides or colistin shown. Approximately 500 CFUs were then added as a droplet onto nonselective media for 18 h. […] The numbers are the means of three independent assays and those in parenthesis are the range for one standard deviation.
Each antimicrobial peptide was assayed at a final concentration of 2 μM. The number of viable bacterial colonies were determined by plating on a non-selective media and enumerated. Each result is the average of three independent assays. The fold reduction in the colony forming units (CFU) was calculated by dividing the number of CFUs in the mock-treated sample with the number in the peptide-treated samples.
Protocol for Enterobacter cloacae: as §2
Protocol for Enterococcus faecalis: as §2
Protocol for Escherichia coli: as §2
Protocol for Klebsiella pneumoniae: as §2
Protocol for Pseudomonas aeruginosa: as §2
Protocol for Serratia marcescens: as §2
Protocol for Staphylococcus aureus: as §2
Protocol for Toll-like receptor 3: Lung epithelial BEAS-2B cells were induced with poly(I:C) at 0.1 μg/ml and the amount of IL-6 secreted into the media 20 h later was assessed by ELISA. Where present, the antimicrobial peptide was at a final concentration of 2 μM.
IL-6 production was quantified by ELISA using the OptEIA™ kit (BD Biosciences). A typical assay used 2×10^4 BEAS-2B cells/well grown for 24 h in flat-bottom 96-well plates. Poly(I:C) was added to a final concentration of 0.13 μg/ml.
Protocol for V. angustum: (§3) Vibrios bacteria such as V. angustum or V fischeri were cultured in LM at 30° C. The V. angustum culture was 200× diluted, V. fischeri culture was 40× diluted. […] The peptides were incubated with the bacteria for 1 hour at 30° C. before plated into the bacteria culture (100 μL peptides and 20 μL mock). The cultures were incubated overnight and Colony Forming Units (CFUs) were counted.
Protocol for V. fischeri: as §3
Protocol for Vibrio vulnificus: The number of symptom-less mice in cages of 5 mice were recorded as a function of time. About 50 colony forming units of V. vulnificus were introduced into a surgical incision. The antimicrobial peptide B22 was introduced into the incision at 5 μM 1 h after the introduction of V. vulnificus to the surgical incision.
A lethal sepsis model from Vibrio vulnificus infection of CD-1 mice was selected. […] Cages of 5 mice were monitored every 2 h.

Consider GRFKRFRKKLKKLFKKLSPVIPLL [BMAP-24], for which the “Viable colonies of Top10pHNSHP45 relative to BMAP27B” value in the series with E. coli Top10pHNSHP45 (2 μM (FIG. 13)) was “reduced the number of viable colonies relative to BMAP27B”. For the same compound, the IL-6 production entry with Toll-like receptor 3 is reported as “do not enhance”. Besides, the IL-8 production result in the series with Toll-like receptor 3 was “do not enhance”. The MIC is 2 µM in the series with Enterobacter cloacae, 4 µM in the series on Enterococcus faecalis and greater than 64 µM in the series with Staphylococcus aureus. Moreover, the “MICs with the carbapenem-resistant K. pneumoniae” value in the series on Klebsiella pneumoniae is no more than 4 µM. Besides, the “MICs for two strains of S. aureus” value against Staphylococcus aureus was no less than 64 µM.
For the compound FRKKLKKLFKKLSPVIPLLKLG [Peptide B22], the MIC was 2 µM with Pseudomonas aeruginosa, 2 µM in the series with Enterobacter cloacae, greater than 32 µM against Enterococcus faecalis and greater than 64 µM in the series with Staphylococcus aureus. Moreover, the Minimal inhibitory concentration in the series on Enterobacter cloacae was 4 µM; in the series with Serratia marcescens, greater than 32 µM. Moreover, the “MICs with the carbapenem-resistant K. pneumoniae” value with Klebsiella pneumoniae was no more than 4 µM. The “MICs for two strains of S. aureus” value in the series on Staphylococcus aureus was no less than 64 µM. For the same compound, the “Symptoms of mice treated with B22 alone” value with Vibrio vulnificus was “no symptom throughout the experiment”.
In the series with Pseudomonas aeruginosa, “ARKKLKKLAKKLSPVIPLLKLG-NH2 [Peptide B22m2]” yielded a minimum inhibitory concentration (MIC) of 4 µM. Besides, in the series on E. coli ATCC 25922, the “Viable colony formation, E. coli ATCC 25922” value is listed as 8.7 × 10^4 and the “Fold reduction, E. coli ATCC 25922” value is on record as 9. In addition, in the series on P. aeruginosa PAO1, the “Reduction of viable colony formation by P. aeruginosa” value is given as “more than 2 logs”; the “Viable colony formation, P. aeruginosa PAO1” value is on record as 7.3 × 10^3; the “Fold reduction, P. aeruginosa PAO1” value was found to be 164. The MIC in the series on Escherichia coli was 4 µM.
On to GRFKRLRKKLKKLFKKLSPVIPLLHLG [BMAP-27B], for which the values for the minimum inhibitory concentration (MIC) in the series with Pseudomonas aeruginosa, against Enterobacter cloacae and with Staphylococcus aureus were 4 µM, 4 µM and greater than 64 µM, respectively. The Minimal inhibitory concentration in the series on Pseudomonas aeruginosa and in the series with Enterobacter cloacae was 4 µM each time. The RBC lysis entry in series [1] is on record as “decreased RBC lysis compared to the control H2O”. Further, the “Cytotoxicity, MTT assay” value in the series with Cultured human cells is listed as “no increased cytotoxicity compared to the controls”.
`CC[C@H](C)[C@H](NC(=O)[C@@H](NC(=O)[C@@H]1CCCN1C(=O)[C@H](CO)NC(=O)[C@H](CC(C)C)NC(=O)[C@H](CCCCN)NC(=O)[C@H](CCCCN)NC(=O)[C@H](Cc1ccccc1)NC(=O)[C@H](CC(C)C)NC(=O)[C@H](CCCCN)NC(=O)[C@H](CCCCN)NC(=O)[C@H](CC(C)C)NC(=O)[C@H](CCCCN)NC(=O)[C@H](CCCCN)NC(=O)[C@H](CCCNC(=N)N)NC(=O)[C@H](Cc1ccccc1)NC(C)=O)C(C)C)C(=O)N1CCC[C@H]1C(=O)N[C@@H](CC(C)C)C(=O)N[C@@H](CC(C)C)C(=O)N[C@@H](CCCCN)C(=O)N[C@@H](CC(C)C)C(=O)NCC(=O)NCCOCCOCC(=O)O` [AB22P] (Ac-FRKKLKKLFKKLSPVIPLLKLG[AEEA]-OH): the “Toxicity signs in mice injected with peptide” value (shortened to “Toxicity signs”) in [2] is “no obvious symptoms were observed; also recorded: no obvious effects on mice behavior or appearance”.
With “RGLRRLGRKIAHGVKKCGPTVLRIIRIAGC [SMAP-29C]”, the “Growth of V. angustum” value with V. angustum was “growth reduction correlation to the concentration of SMAP-29C”. Moreover, in the series with V. fischeri, the “Growth of V. fischeri” value was “growth reduction correlation to the concentration of SMAP-29C”. For the same compound, the “Growth of V. harveyi” value in the series on V. harveyi is listed as “growth reduction correlation to the concentration of SMAP-29C”. The “Reduction of Top10pHNSHP45 colony formation” value with E. coli Top10pHNSHP45 is given as “several logs”.
For “GLRKKFRKTRKRIQKLGRKIGKTGRKVWKAWREYGQIPYPCRI [CAP-11, reference compound]”, the “Number of strains inhibited at 16 μg/ml” value in the series on 19 Gram-negative strains is reported as 16/19. Moreover, the Minimal inhibitory concentration in the series with Escherichia coli was greater than 32 µg/mL.
As to LLGDFFRKSKEKIGKEFKRIVQRIKDFLR [LL-29], in the series with 19 Gram-negative strains, the “Number of strains inhibited at 16 μg/ml” value is 4/19.
Take “FRKKLKKLFKKLSPVIPLLKLG-NH2 [Peptide B22a]”: the MIC against Pseudomonas aeruginosa and in the series with Escherichia coli was 2 µM in each case. The Minimal inhibitory concentration in the series on Pseudomonas aeruginosa was 2 µM; in the series on Enterobacter cloacae, 4 µM; in the series on Klebsiella pneumoniae it was 2 µM; in the series with Serratia marcescens, greater than 32 µM. Moreover, the “Toxicity signs” value in series [2] is reported as “did not exhibit distress or signs of toxicity”.
On to “RLGNFFRKVKEKIGGGLKKVGQKIKDFLGNLVPRTAS [RL-37]”, for which the “Number of strains inhibited at 16 μg/ml” value in the series on 19 Gram-negative strains is recorded as 7/19.
In the case of “FRKKLKKLAKKLSPVIPLLKLG-NH2 [Peptide B22m1]”, in the series with Pseudomonas aeruginosa, the MIC worked out at 2 µM. For the same compound, in the series on E. coli ATCC 25922, the “Killing of E. coli compared with B22a” value is “comparable killing”; the “Viable colony formation, E. coli ATCC 25922” value is 4.7 × 10^5; the “Fold reduction, E. coli ATCC 25922” value stood at 170. In the series on P. aeruginosa PAO1, the “Killing of P. aeruginosa compared with B22a” value was “comparable killing”; the “Viable colony formation, P. aeruginosa PAO1” value is reported as less than 20; the “Fold reduction, P. aeruginosa PAO1” value is given as greater than 6000. The “Growth rate of P. aeruginosa” value with P. aeruginosa is “perceptibly reduced”. The minimum inhibitory concentration (MIC) against Escherichia coli is 2 µM.
In the case of Colistin [reference compound], in the series with E. coli Top10pHNSHP45 (2 μM, 5 minute incubation (FIG. 12A)), the “Killing of E. coli Top10pHNSHP45” value was “resistant”. In the series on E. coli Top10pHNSHP45, the “Reduction of Top10pHNSHP45 colony formation” value is “little effect”. Further, the minimum inhibitory concentration (MIC) against Klebsiella pneumoniae (Table 8, clinical isolate 262 (NDM1+)) was greater than 8 µg/mL; with Klebsiella pneumoniae (Table 8, clinical isolate 284), 16 µg/mL; in the series on Klebsiella pneumoniae (Table 8, clinical isolate 330), greater than 16 µg/mL; in the series on Klebsiella pneumoniae (Table 8, clinical isolate 361), greater than 16 µg/mL; in the series on Klebsiella pneumoniae (Table 11, clinical isolate 265), greater than 8 µg/mL; against Klebsiella pneumoniae (Table 11, clinical isolate 284), 16 µg/mL. Further, the MIC in the series on Klebsiella pneumoniae (Table 11, clinical isolate 330) is greater than 16 µg/mL; against Klebsiella pneumoniae (Table 11, clinical isolate 361), greater than 16 µg/mL.
Turning to Ac-FRKKLKKLFKKLSPVIPLLKLG-NH2 [AB22a], the “Toxicity signs” value is given as “no obvious effects on mice behavior or appearance” in series [2] and “no obvious symptoms were observed” in series [2] (listed as AB22N).
